# Assay results taken from patent US20130131178A1, “USE OF OXALOACETATE IN THE TREATMENT OF ISCHAEMIA” (UNIVERSIDADE DE SANTIAGO DE COMPOSTELA, priority 2010, published 2013).
# Assays:
# Type in all cases: in vivo, male Sprague-Dawley (SD) rats
# blood glutamate levels [1] = assay: Effect of oxaloacetate administration on blood glutamate and aspartate levels in healthy animals; parameters: effect on glutamate levels: dose or concentration left out as unconfirmed
# Method: The oxaloacetate used (Sigma-Aldrich, Ref, 171263, 95%) was dissolved in saline solution to a concentration of 10 mg/mL and the pH adjusted to 7.4. […]
# (§1) The study protocols for male Sprague-Dawley (SD) rats (Charles River Laboratories; France) weighing between 300 and 350 g were approved by the Animal Use and Care Committee at the Hospital de Santiago de Compostela.
# Anaesthesia was induced by inhalation of 5% sevoflurane in a mixture of nitrous oxide and oxygen (70/30). A rectal temperature of 37.5° C. was maintained. Glucose levels (180-220 mg/dL) were analysed prior to the intervention.
# (§2) Aspartate and glutamate levels in blood were analysed according to the method described in the following reference (White, J. A., R. J. Hart, and J. C. Fry, An evaluation of the Waters Pico-Tag system for the amino-acid analysis of food materials. J Automat Chem, 1986. 8(4): p. 170-7).
# Likewise, no changes in aspartate levels were observed (FIG. 1b).
# This increase in aspartate levels confirms that glutamate is being metabolised by the enzyme GOT as a result of oxaloacetate treatment.
# The […] and aspartate levels in blood were established in a control group treated with saline.
# blood glutamate levels [2] = assay: Effect of oxaloacetate on blood glutamate levels in an animal model of focal ischaemia (MCAO); conditions: 3.5 mg/100 g IV 90 minutes post-occlusion, 4 hours post-occlusion
# Method: The oxaloacetate used (Sigma-Aldrich, Ref, 171263, 95%) was dissolved in saline solution to a concentration of 10 mg/mL and the pH adjusted to 7.4. As the average weight of the experimental animals was 325 g and the dose administered was 3.5 mg/100 g body weight, each animal received an average volume of 1.2 mL of 10 mg/mL oxaloacetate.
# as §1
# Anaesthesia was induced by inhalation of 5% sevoflurane in a mixture of nitrous oxide and oxygen (70/30). A rectal temperature of 37.5° C. was maintained. Glucose levels (180-220 mg/dL) were analysed prior to the intervention. […]
# as §2
# Two groups were designed: an MCAO group treated with saline (control group) and an MCAO group treated with 3.5 mg/100 g oxaloacetate IV 90 minutes post-occlusion. The blood glutamate levels and infarct and oedema volumes were determined in both groups. […]
# [3] = tested on: Middle cerebral artery occlusion (MCAO) model of cerebral ischaemia; assay: Infarct and oedema volumes by magnetic resonance imaging in the MCAO model of cerebral ischaemia; conditions: 3.5 mg/100 g IV 90 minutes post-occlusion
# Method: The oxaloacetate used (Sigma-Aldrich, Ref, 171263, 95%) was dissolved in saline solution to a concentration of 10 mg/mL and the pH adjusted to 7.4. As the average weight of the experimental animals was 325 g and the dose administered was 3.5 mg/100 g body weight, each animal received an average volume of 1.2 mL of 10 mg/mL oxaloacetate. The study protocols for male Sprague-Dawley (SD) rats (Charles River Laboratories; France) weighing between 300 and 350 g were approved by the Animal Use and Care Committee at the Hospital de Santiago de Compostela. Anaesthesia was induced by inhalation of 5% sevoflurane in a mixture of nitrous oxide and oxygen (70/30). A rectal temperature of 37.5° C. was maintained. Glucose levels (180-220 mg/dL) were analysed prior to the intervention. Middle cerebral artery occlusion (MCAO) was used as a model of cerebral ischaemia, as described in the literature (Longa, E. Z., et al., Reversible middle cerebral artery occlusion without craniectomy in rats. Stroke, 1989. 20(1): p. 84-91). […] The infarct and oedema volumes were determined by magnetic resonance imaging. […] The blood glutamate levels and infarct and oedema volumes were determined in both groups. […]
smiles,measurement,setting,value
O=C(O)CC(=O)C(=O)O [oxaloacetate],effect on glutamate levels,blood glutamate levels [1]; administration via bolus (IV),no effect
same,decrease in serum glutamate levels with respect to basal levels,"blood glutamate levels [1]; healthy animals, 3.5 mg/100 g IV, two hours post-administration",60%
same,drop of blood glutamate levels below basal levels,blood glutamate levels [2],50%
same,infarct volume smaller than in the control group,[3]; 24 hours post-ischaemia,approximately 40%
same,decrease of infarct volume,[3]; at 7 days,80%
